“And” between values parts separate entries of the source, which are not always exact repeats. Equal entries are not always repeated. Where two headings read alike, the source gives them in different places. Peptide text beside a SMILES is read from it.
Tests used:
E. coli biofilms = test: checkerboard titration biofilm synergy (MBIC, FIC); assay type: cell-based; details: for MBIC: compound alone; for Fold decrease in antibiotic concentration: in the presence of peptide 1018; for Fold decrease in antibiotic concentration / antibiotic MIC: in the presence of peptide DJK5
Method: (§1) Peptides and various conventional antibiotics were analyzed by checkerboard titration into microtiter trays using CLSI methods (Wiegand, I., K. Hilpert, and R. E. W. Hancock. 2008. Nature Protocols 3:163-175), bacteria added and, after overnight incubation at 37° C., the residual biofilm assessed by the crystal violet method mentioned in the body of the grant, with an A595 of 0.2 considered as 100% biofilm inhibition. The effects of the peptide in reducing the minimal biofilm inhibitory concentration (MBIC) of the antibiotic and vice versa were assessed using the Fractional Inhibitory Concentration (FIC) method whereby ΣFTC=FICA+FICB=(CA/MICA)+(CB/MICB), where MBICA and MBICB are the MBICs of peptide A and antibiotic B alone, respectively, and CA and CB (expressed in μg/ml) are the MICs of the drugs in combination. This conventional clinical microbiology assay is interpreted as follows

S. aureus biofilms = test: checkerboard titration biofilm synergy (MBIC, FIC); assay type: cell-based; details: for MBIC: compound alone; for Fold decrease in antibiotic concentration / antibiotic MIC: in the presence of peptide DJK5
Method: as §1

P. aeruginosa biofilms = details: P. aeruginosa biofilm
Method: as §1

A. baumannii biofilm = test: checkerboard titration biofilm synergy (FIC); assay type: cell-based; details: for Fold decrease in antibiotic MIC in the presence of peptide: peptide DJK5
Method: as §1

K. pneumoniae biofilm = test: checkerboard titration biofilm synergy (FIC); assay type: cell-based; details: for Fold decrease in antibiotic MIC in the presence of peptide: peptide DJK5
Method: as §1

Salmonella biofilm = test: checkerboard titration biofilm synergy (FIC); assay type: cell-based; details: for Fold decrease in antibiotic MIC in the presence of peptide: peptide DJK5
Method: as §1

[1] = test system: Pseudomonas aeruginosa (Pa) biofilm; test: static abiotic solid surface (microtiter, crystal violet) / Bioflux biofilm inhibition screen; assay type: cell-based
Method: FIG. 1. Identification of new anti-biofilm peptides active against P. aeruginosa using the microtiter plate screening method with crystal violet staining. […] As a control peptide 1037 was utilized [de la Fuente Nunez et al. 2011].
Methods of assessment of anti-biofilm activity—Biofilm formation was initially analyzed using a static abiotic solid surface assay as described elsewhere (de la Fuente-Nunez et al., 2012). Dilutions (1/100) of overnight cultures were incubated in BM2 biofilm-adjusted medium [62 mM potassium phosphate buffer (pH 7), 7 mM (NH4)2SO4, 2 mM MgSO4, 10 μM FeSO4, 0.4% (wt/vol) glucose, 0.5% (wt/vol) Casamino Acids], or a nutrient medium such as Luria Broth, in polypropylene microtiter plates (Falcon, United States) in the absence (control) or presence of peptide. Peptide was added at time zero (prior to adding the diluted, overnight cultures) in varying concentrations, and the decrease in biofilm formation was recorded at 22-46 h for most bacteria. Planktonic cells were removed, biofilm cells adhering to the side of the tubes were stained with crystal violet, and absorbance at 595 nm was measured using a microtiter plate reader (Bio-Tek Instruments Inc., United States). Some peptides were screened against two Gram negative organisms, P. aeruginosa and K. pneumoniae using a Bioflux apparatus (AutoMate Scientific, Berkeley, Calif.; http://www.autom8.com/bioflux_biofilm.html), which allows for the high-throughput, real-time analysis of biofilms.

[2] = test system: methicillin resistant S. aureus (Sa) biofilm; assay type: cell-based, Staphylococcus aureus; details: peptide 5 μg/ml
[3] = antibiotic in combination with peptide 1018
[4] = antibiotic in combination with peptide DJK5
[5] = in combination with peptide 1018
[6] = in combination with peptide DJK5
[7] = in the presence of peptide 1018

Row | SMILES | FIC (E. coli biofilms; [3]) | FIC (E. coli biofilms; [4]) | MBIC (E. coli biofilms) [µg/mL] | concentration of antibiotic at FIC (E. coli biofilms; [5]) [µg/mL] | concentration of antibiotic at FIC (E. coli biofilms; [6]) [µg/mL] | Fold decrease in antibiotic concentration (E. coli biofilms) [X] | Fold decrease in antibiotic concentration / antibiotic MIC (E. coli biofilms) [X] | FIC (S. aureus biofilms; [3]) | FIC (S. aureus biofilms; [4]) | MBIC (S. aureus biofilms) [µg/mL] | concentration of antibiotic at FIC (S. aureus biofilms; [5]) | concentration of antibiotic at FIC (S. aureus biofilms; [6]) [µg/mL] | Fold decrease in antibiotic concentration (S. aureus biofilms; [7]) [X] | Fold decrease in antibiotic concentration / antibiotic MIC (S. aureus biofilms) [X] | FIC (P. aeruginosa biofilms; [3]) | FIC (P. aeruginosa biofilms; [4]) | Concentration of antibiotic at the FIC (P. aeruginosa biofilms; [5]) [µg/mL] | Concentration of antibiotic at the FIC (P. aeruginosa biofilms; [6]) [µg/mL] | FIC (A. baumannii biofilm; [3]) | FIC (A. baumannii biofilm; [4]) | further results
1 | C[C@@H](O)[C@H]1C(=O)N2C(C(=O)O)=C(SCCN=CN)C[C@H]12 [Imipenem] | 0.75 | 1 | 6.4 | 1.6 | 0.1 | 4 | 64 | 0.25 | 0.52 | >102.4 | 25.6 µg/mL | 3.2 | 4 | 32 | 0.502 and 0.5 | 0.51 and 0.5 | 0.8 | 0.8 | 0.53 | 0.75 | Fold decrease in antibiotic MIC in the presence of peptide (A. baumannii biofilm): 2X; FIC (K. pneumoniae biofilm; [3]): 0.53; FIC (K. pneumoniae biofilm; [4]): 1; Fold decrease in antibiotic MIC in the presence of peptide (K. pneumoniae biofilm): 64X; FIC (Salmonella biofilm; [3]): 1; FIC (Salmonella biofilm; [4]): 1; Fold decrease in antibiotic MIC in the presence of peptide (Salmonella biofilm): 2X
2 | CC[C@H](C)[C@H](N)C(=O)N[C@@H](CC(C)C)C(=O)N1CCC[C@H]1C(=O)N[C@@H](Cc1c[nH]c2ccccc12)C(=O)N[C@@H](CCCCN)C(=O)N[C@@H](Cc1c[nH]c2ccccc12)C(=O)N1CCC[C@H]1C(=O)N[C@@H](Cc1c[nH]c2ccccc12)C(=O)N[C@@H](Cc1c[nH]c2ccccc12)C(=O)N1CCC[C@H]1C(=O)N[C@@H](Cc1c[nH]c2ccccc12)C(=O)N[C@@H](CCCNC(=N)N)C(=O)N[C@@H](CCCNC(=N)N)C(N)=O [Indolicidin, reference compound] | – | – | – | – | – | – | – | – | – | – | – | – | – | – | – | – | – | – | – | – | % Biofilm Inhibition Pa ([1]; Pa) biofilm, 10 μg/ml): 29%; % Biofilm Inhibition Sa [2]: 48%
3 | CC[C@H](C)[C@H](N)C(=O)N[C@@H](CC(C)C)C(=O)N[C@@H](CCCCN)C(=O)N[C@@H](CCCCN)C(=O)N[C@@H](Cc1c[nH]c2ccccc12)C(=O)N1CCC[C@H]1C(=O)N[C@@H](Cc1c[nH]c2ccccc12)C(=O)N[C@@H](Cc1c[nH]c2ccccc12)C(=O)N1CCC[C@H]1C(=O)N[C@@H](Cc1c[nH]c2ccccc12)C(=O)N[C@@H](CCCNC(=N)N)C(=O)N[C@@H](CCCNC(=N)N)C(=O)N[C@@H](CCCCN)C(N)=O [Peptide 11CN] (H-ILKKWPWWPWRRK-NH2; N-terminus assumed) | – | – | – | – | – | – | – | – | – | – | – | – | – | – | – | – | – | – | – | – | % Biofilm Inhibition Sa [2]: 32%
4 | CC[C@H](C)[C@H](NC(=O)[C@H](CCCNC(=N)N)NC(=O)[C@H](C)NC(=O)[C@@H](NC(=O)[C@H](CC(C)C)NC(=O)[C@H](CCCNC(=N)N)NC(=O)[C@H](CCCNC(=N)N)NC(=O)[C@@H](NC(=O)[C@@H](NC(=O)[C@H](CCCNC(=N)N)NC(=O)[C@@H](N)CCCCN)[C@@H](C)CC)C(C)C)C(C)C)C(=O)N[C@H](C(N)=O)C(C)C [Peptide 1017] (H-KRIVRRLVARIV-NH2; N-terminus assumed) | – | – | – | – | – | – | – | – | – | – | – | – | – | – | – | – | – | – | – | – | % Biofilm Inhibition Pa ([1]; peptide 10 μg/ml): 26%; % Biofilm Inhibition Sa [2]: 21%
5 | NC[C@H]1O[C@H](O[C@H]2[C@H](O)[C@@H](O[C@H]3O[C@H](CO)[C@@H](O)[C@H](N)[C@H]3O)[C@H](N)C[C@@H]2N)[C@H](N)C[C@@H]1O [Tobramycin] | 0.375 and 0.38 | 0.5625 and 0.56 | 6.4 | 1.6 | 0.4 | 4 | 16 | 0.52 and 0.5 | 1 | >102.4 | 1.6 µg/mL | 1.6 | 64 | 64 | 0.502 and 0.5 | 0.51 and 0.5 | 1.6 | 1.6 | 0.38 | 0.56 | Fold decrease in antibiotic MIC in the presence of peptide (A. baumannii biofilm): 16X; FIC (K. pneumoniae biofilm; [3]): 0.31; FIC (K. pneumoniae biofilm; [4]): 0.75; Fold decrease in antibiotic MIC in the presence of peptide (K. pneumoniae biofilm): 4X; FIC (Salmonella biofilm; [3]): 0.75; FIC (Salmonella biofilm; [4]): 1.03; Fold decrease in antibiotic MIC in the presence of peptide (Salmonella biofilm): 32X
6 | CC(C)(O/N=C(\C(=O)N[C@@H]1C(=O)N2C(C(=O)[O-])=C(C[n+]3ccccc3)CS[C@H]12)c1csc(N)n1)C(=O)O [Ceftazidime] | 1 | 0.542 and 0.54 | 0.4 | 0.1 | 0.2 | 4 | 2 | 0.16 | 0.375 and 0.38 | 256 | 8-8 μg/ml | 32 | 32 | 8 | 0.38 | 0.51 and 0.5 | 1.4 | 0.8 | 0.37 | 0.75 | FIC (S. aureus biofilms; antibiotic in combination with peptide DJK6): 0.4; Fold decrease in antibiotic concentration (S. aureus biofilms; in the presence of peptide DJK6): 8; Fold decrease in antibiotic MIC in the presence of peptide (A. baumannii biofilm): 2X; FIC (K. pneumoniae biofilm; [3]): 0.75; FIC (K. pneumoniae biofilm; [4]): 0.89; Fold decrease in antibiotic MIC in the presence of peptide (K. pneumoniae biofilm): 16X; FIC (Salmonella biofilm; [3]): 0.31; FIC (Salmonella biofilm; [4]): 0.75; Fold decrease in antibiotic MIC in the presence of peptide (Salmonella biofilm): 4X
